Assay results from the NIST ThermoML archive (doi:10.1016/j.jct.2010.06.003).
± gives the expanded uncertainty stated by the source.

Legend:
[1] = Crystal; DTA
[2] = Molar enthalpy of transition or fusion; settings: Crystal; DSC

Structure (SMILES)	Triple point temperature [1] [K]	Molar enthalpy of transition or fusion [2] [kcal/mol]
O=c1oc2ccccc2cc1O [3-hydroxycoumarin]	425.62 ± 0.39	6.48 ± 0.146
O=c1cc(O)c2ccccc2o1 [4-hydroxycoumarin]	483.62 ± 0.91	5.54 ± 0.141
